Measurements taken from publication PMC12040169 (PLOS Biology, 2025).

Test: in vitro
Details: human, hela cells, % viability

SMILES	viability at 28.5 h, 10 µM [%]
CCc1nnc(NS(=O)(=O)c2ccc(NC(=O)c3ccccc3[N+](=O)[O-])cc2)s1 [CBK045494]	94.2
Cc1cc(C)c(S(=O)(=O)Nc2nnc(C)s2)c(C)c1 [CBK045497]	87.5
Cc1cc(C)c(S(=O)(=O)Nc2nnc(C(F)(F)F)s2)c(C)c1 [CBK045507]	99.7
COCc1nnc(NS(=O)(=O)c2ccc(C)cc2)s1 [CBK045523]	86.7
CS(=O)(=O)Nc1nnc(SCC(=O)Nc2cccc([N+](=O)[O-])c2)s1 [CBK045536]	102
Cc1nc(NS(=O)(=O)c2ccc3ccccc3c2)sc1C(=O)O [CBK045548]	105
Cc1nc(NS(=O)(=O)Cc2ccccc2)sc1C(=O)O [CBK045552]	110
CCCc1ccc(S(=O)(=O)Nc2nc(C)c(C(=O)O)s2)cc1 [CBK045555]	88.3
COc1ccc(Br)cc1S(=O)(=O)Nc1nc(C)c(C(=O)O)s1 [CBK045558]	106
Cc1nc(NS(=O)(=O)c2cc(Br)c(Cl)s2)sc1C(=O)O [CBK045560]	96
Cc1nc(NS(=O)(=O)c2c(C)noc2C)sc1C(=O)O [CBK045562]	85.7
Cc1nc(NS(=O)(=O)Cc2ccccc2[N+](=O)[O-])sc1C(=O)O [CBK045564]	89.5
Cc1nc(NS(=O)(=O)c2ccc(Oc3ccccc3)cc2)sc1C(=O)O [CBK045566]	107
O=S(=O)(c1ccccc1C(F)(F)F)n1ccc2c(N3CCNCC3)nccc21 [CBK045605C]	99.5
COc1cc(C2(O)CCN(Cc3ccccc3)C2)ccc1OCc1ccccc1 (stereo not drawn) [CBK045620]	95.9
CN(C)CCOCc1ncccc1OCCOC1CCCCO1 (stereo not drawn) [CBK045662]	93.1
COc1ccc([C@@]23CC[C@@H](NC(=O)N(C)c4ccc(C)cc4)C[C@@H]2N(C)CC3)cc1OC [CBK045681T]	89.2
COc1ccc([C@@]23CC[C@@H](NC(=O)N(C)c4ccc(Cl)cc4)C[C@@H]2N(C)CC3)cc1OC [CBK045682T]	90.8
O=S(=O)(Cc1ccc(Br)cc1)c1cc2c(N3CCNCC3)nccc2s1 [CBK045688C]	87.4
O=S(=O)(Cc1cccc(F)c1F)c1cc2c(N3CCNCC3)nccc2s1 [CBK045690C]	89.1
COc1ccc([C@@]23CC[C@@H](NC(=O)Nc4ccnc5ccccc45)C[C@@H]2N(C)CC3)cc1OC [CBK045699]	100

SMILES	viability at 28.5 h, 10 µM [%]
CCOC(=O)c1cc(-c2cccc(Cl)c2)oc1C [CBK045775]	104
O=[N+]([O-])c1ccc(N2CCN(Cc3ccccc3)CC2)cc1NCc1ccccc1 [CBK045841]	86.9
Oc1cccnc1N1CCN(Cc2ccccc2)CC1 [CBK045849]	104
Cc1cccc(-c2cc(C(=O)O)c(C)o2)c1 [CBK045855]	87.7
Cc1ccc(C(=O)N2CC(=O)N(CCO)C2)cc1 [CBK045864]	110
CCCC(=O)Nc1c(F)cc(F)cc1OC1CCNCC1 [CBK045892T]	91.1
CC(C(=O)Nc1c(F)cc(F)cc1OC1CCNCC1)c1ccccc1 (stereo not drawn) [CBK045896T]	103
O=C(CCOc1ccccc1)Nc1c(F)cc(F)cc1OC1CCNCC1 [CBK045897T]	105
O=c1c(N2CCN(CCOc3ccccc3)CC2)nccn1CCOc1cc(F)c(F)cc1F [CBK045934C]	103
CC(NC(=O)N(Cc1ccc(CN)cc1)Cc1ccc2ccccc2c1)c1cccc2ccccc12 (stereo not drawn) [CBK046092C]	90
NCc1ccc(CN(Cc2ccc(-c3ccccc3)cc2)C(=O)Nc2c(F)cccc2F)cc1 [CBK046115C]	104
NCc1ccc(CN(Cc2ccc(-c3ccccc3)cc2)C(=O)Nc2ccccc2C(F)(F)F)cc1 [CBK046116C]	86.3
CC(NC(=O)N(Cc1ccc(CN)cc1)Cc1cnc(-c2ccccc2)[nH]1)c1cccc2ccccc12 (stereo not drawn) [CBK046149C]	97.1
NCCN(Cc1cccc(Cl)c1)C(=O)NC(c1ccccc1)c1ccccc1 [CBK046203C]	90.8
Cc1cccc(CN(CCN)C(=O)NC2C[C@H]2c2ccccc2)n1 (stereo partly drawn) [CBK046220C]	120
Cc1cccc(CN(CCN)C(=O)Nc2ccc(C(C)(C)C)cc2)n1 [CBK046230C]	96.4
CC(C)(C)c1ccc(NC(=O)N(CCN)Cc2c[nH]c(-c3ccccc3)n2)cc1 [CBK046297C]	64.9
Cc1ccc(NS(=O)(=O)c2cc3c(OC4CCNCC4)nccc3s2)cc1 [CBK046309C]	96
COc1ccc([C@@]23CC[C@@H](C(=O)Nc4ccc(C(F)(F)F)cn4)C[C@@H]2N(C)CC3)cc1OC [CBK046310T]	87.3
NCC(=O)Nc1ccc(F)c(F)c1 [CBK046313]	103
NCC(=O)Nc1ccc(Cl)c(Cl)c1 [CBK046317]	94.3

SMILES	viability at 28.5 h, 10 µM [%]
CC(=O)NCc1ccc(C)n1C [CBK046356]	106
CC(C)(CC(=O)O)CC(=O)N1CCCC1c1nc(-c2ccccc2)c2ccccn12 (stereo not drawn) [CBK046399]	98.8
CCc1ccc(OCCNc2cc(N3CCN(CCO)CC3)ccc2[N+](=O)[O-])cc1 [CBK046496]	91.7
CCOC(=O)CNC(=O)N1CCCC1c1nc(-c2ccccc2)c2ccccn12 (stereo not drawn) [CBK046502]	103
Cc1ccc(-c2nc(C3CCCN3C(=O)C3CC3C(=O)O)n3ccccc23)cc1 (stereo not drawn) [CBK046559]	79.8
COC(=O)c1ccc(NC(=O)N2CCCC2c2nc(-c3ccccc3)c3ccccn23)cc1 (stereo not drawn) [CBK046725]	102
Cc1ccccc1NC(=O)N1CCC2(CC1)NCCc1c2[nH]c2ccc(O)cc12 [CBK046904]	91
CC(C)NC(=O)N1CCCC1c1nc(-c2ccc(Cl)cc2)c2ccccn12 (stereo not drawn) [CBK046947]	84
CC(C)NC(=O)N1CCCC2(C1)NCCc1c2[nH]c2ccccc12 (stereo not drawn) [CBK046952]	86.7
CCC(C)(CC(=O)O)CC(=O)N1CCC2(C1)NCCc1c2[nH]c2ccccc12 (stereo not drawn) [CBK047003]	88.5
C/C(C(=O)O)=C(/C)C(=O)N1CCC2(CC1)NCCc1c2[nH]c2ccc(C)cc12 [CBK047026]	100
O=C(O)/C(Cl)=C(\Cl)C(=O)N1CCC2(CC1)OCCc1c2[nH]c2ccccc12 [CBK047035]	85
C[C@H](NC(=O)N1CCC2(CC1)NCCc1c2[nH]c2ccc(Cl)cc12)c1ccccc1 [CBK047046]	90
CCC(C)(CC(=O)O)CC(=O)N1CCC2(CC1)OCCc1c2[nH]c2ccccc12 (stereo not drawn) [CBK047051]	102
Cc1ccc2[nH]c3c(c2c1)CCNC31CCN(C(=O)Nc2c(C)noc2C)CC1 [CBK047071]	83.1
COc1ccc2[nH]c3c(c2c1)CCOC31CCN(C(=O)N[C@@H](C)c2ccccc2)CC1 [CBK047114]	98.5
O=C(NCCc1cccs1)N1CCC2(CC1)OCCc1c2[nH]c2ccccc12 [CBK047129]	85.4
COc1ccc2[nH]c3c(c2c1)CCOC31CCN(C(=O)Nc2ccc(C(C)C)cc2)CC1 [CBK047154]	95.5
O=C(O)C1CC1C(=O)N1CCC2(CC1)OCCc1c2[nH]c2ccccc12 (stereo not drawn) [CBK047167]	89.2
O=C(O)COCC(=O)N1CCC2(CC1)NC(=O)Cc1c2ccc2ccccc12 [CBK047168]	88.4
O=C1Cc2cc3ccccc3cc2C2(CCN(C(=O)C3CCC3C(=O)O)CC2)N1 (stereo not drawn) [CBK047252]	92.5

SMILES	viability at 28.5 h, 10 µM [%]
Cc1ccc2c(c1)CC(=O)NC21CCN(C(=O)C2CC2C(=O)O)CC1 (stereo not drawn) [CBK047258]	103
CC(CC(=O)O)CC(=O)N1CCC2(CC1)NC(=O)Cc1ccccc12 (stereo not drawn) [CBK047281]	95.3
O=C1Cc2ccccc2C2(CCN(C(=O)Nc3c(F)cccc3F)CC2)N1 [CBK047296]	89
O=C1Cc2ccccc2C2(CCN(C(=O)c3cccc4cccc(C(=O)O)c34)CC2)N1 [CBK047313]	93.2
COc1ccc2c(c1)CC(=O)NC21CCN(C(=O)N[C@@H](C)c2ccccc2)CC1 [CBK047325]	92.4
C=CCNC(=O)N1CCC2(CC1)OCCc1c2n(C)c2ccccc12 [CBK047354]	84.8
CCOC(=O)c1ccc(NC(=O)N2CCC3(CC2)NC(=O)Cc2ccccc23)cc1 [CBK047362]	107
CCOC(=O)c1[nH]c2ccccc2c1NS(=O)(=O)c1ccc(NC(C)=O)cc1 [CBK047411]	81.4
CCOC(=O)c1[nH]c2ccccc2c1NS(=O)(=O)Cc1ccccc1 [CBK047413]	93.1
CCOC(=O)c1[nH]c2ccccc2c1NS(=O)(=O)c1ccc(OC)c(OC)c1 [CBK047421]	86
CCOC(=O)c1[nH]c2ccccc2c1NS(=O)(=O)c1cccc(Cl)c1C [CBK047423]	88.9
CCOC(=O)c1[nH]c2ccccc2c1NS(=O)(=O)c1ccc(C)c([N+](=O)[O-])c1 [CBK047427]	97.6
CCOC(=O)c1sc(NS(=O)(=O)c2cccc3cccnc23)nc1C [CBK047443]	91.6
CCOC(=O)c1sc(NS(=O)(=O)Cc2ccccc2[N+](=O)[O-])nc1C [CBK047458]	98.5
CNC(=O)CC1SC(NC2CC3C=CC2C3)=NC1=O (stereo not drawn) [CBK047491]	90.7
CC(=O)Nc1ccc(SC(C)c2nsc(NS(=O)(=O)c3ccc(-c4ccccc4)cc3)n2)cc1 (stereo not drawn) [CBK047508]	91.5
O=C(Nc1ccc(F)c(F)c1)N[C@H]1CC[C@@]2(c3cccc(Br)c3)CCN(Cc3ccccc3)[C@H]2C1 [CBK047515]	107
COc1ccc([C@@]23CCC(NC(=O)Nc4ccccc4OC(F)F)C[C@@H]2N(C)CC3)cc1OC (stereo partly drawn) [CBK047547T]	97.9
COc1ccc([C@@]23CCC(NC(=O)Nc4cc(C(F)(F)F)ccc4F)C[C@@H]2N(C)CC3)cc1OC (stereo partly drawn) [CBK047552T]	87.2
CNC(=O)c1cc(-c2cccc(Cl)c2)oc1CC(=O)c1ccc(CN2CCCC2)cc1 [CBK047558]	95.3
Cc1ccc(-c2csc(CC#N)n2)cc1 [CBK047576]	79.3
